Where two headings read alike, the source gives them in different places.

For data set [1], the target named is T1, HIV-1 protease (Human immunodeficiency virus type 1 group M subtype B, UniProt P04585).
T1 construct: Teach monomer is formed by 99 residues organized in β strands
The experiment in a line: HIV-1 protease inhibition. The following applies: models such as those described by Pivazyan et al., Biochem. Pharma, 2000, 60, 927. The format is biochemical, Human immunodeficiency virus 1. An excerpt: The ability of a compound of the invention to act as an inhibitor of HIV-1 protease may be determined using pharmacological models which are well known to the art, such as tnose described by A. D. Pivazyan et al., Biochem. Pharma, 2000, 60, 927.

The target in data set [2] is chymotrypsin (Bos taurus, UniProt P00766). The following applies: pH 7.5; cited from earlier work.
The text on data set [3]: Furthermore, we attempted to separate the crude product on HPLC using a C18 reverse phase column and water/acetonitrile as the solvent. […] Using trifluoroacetic acid as part of the solvent mixture will acidify the media and might prevent decomposition.

On to “[( 1R)-1-(Ac-Ser-Leu-Asn)-2-phenylethyl]-B-methylene-L-proline amide borinic acid [Compound I28a]”, for which the “inhibition of HIV-1 protease” value in data set [1] is reported as “inhibitors of HIV-1 protease”.
What is called Ki is a dissociation constant, usually derived from enzyme kinetics or from competition with a known ligand. Take `CC(=O)N[C@@H](Cc1ccccc1)B(O)O`: the Ki in data set [2] is 2100 nM.
For “[(1R)-1-(Ac-Thr-Leu-Asn)-2-phenylethyl]-B-methylene-L-proline amide borinic acid [Compound I28b]”, in data set [1], the “inhibition of HIV-1 protease” value is reported as “inhibitors of HIV-1 protease”.
Consider `CC(=O)N[C@@H](Cc1ccccc1)B(O)CN1CCC[C@H]1C(N)=O` [Compound I24, [(1R)-(1-Acetamido-2-phenylethyl)]-B-methylene-L-proline amide borinic acid], for which the “stability under HPLC conditions” value in data set [3] (C18 reverse phase column, water/acetonitrile, gradient separation, crude product) is listed as “unstable”. Also, the “stability in buffer solution” value in data set [3] (acidic and neutral media) is on record as “stable”; in data set [3] (basic conditions), “quickly decomposes”. In addition, in data set [1], the “inhibition of HIV-1 protease” value was “inhibitors of HIV-1 protease”.

Values taken from US20030220267A1, “Borinic acid protease inhibitors” (priority 2001, published 2003).
